Assay results from patent publication US12646011B2, “Methods and nutritional formulations to increase the efficacy and reduce the side effects of cancer treatment” (UNIVERSITY OF SOUTHERN CALIFORNIA, priority 2009, dated 2026).

Key:
[1] = system: breast cancer cells (4T1); test: In vitro fasting (STS) and chemotherapy, MTT survival, 4T1; format: cell-based, murine; settings: for sensitization by serum from fasted mice: versus serum from mice fed ad lib, MTT
Description: To model fasting in vitro, cancer cells were incubated in media containing serum collected from mice either fed ad lib or fasted for 48 hours. […] Because pronounced glucose and growth factor reduction (e.g., the 75% reduction in the growth factor IGF-I) are two key extracellular responses to fasting, cells were incubated in different glucose and serum concentrations based on blood glucose measurements from normally fed and fasted mice (FIG. 31), i.e., incubation in low glucose (0.5 g/L) with low serum (1% FBS), or normal glucose (1.0 and 2.0 g/L for human and murine cell lines respectively) with normal serum (10% FBS) for 24 hours before and also during drug treatment (FIG. 32).
4T1-luc murine breast cancer cells were purchased from SibIech (Brookfield, CT). B16-fluc murine melanoma cells were provided by Noah Craft (UCLA). GL26 murine glioma, U87-MG human glioblastoma cells were provided by Thomas Chen (USC). PC3 and 22RV1 human prostate cancer cells were provided by Pinchas Cohen (UCLA). MCF-7 and […] human breast cancer cells and HeLa human cervical cancer cells were provided by Amy Lee (USC). LOVO human colon cancer cells were provided by Darryl Shibata (USC). NXS2 and Neuro-2a murine neuroblastoma, human ACN and SH-SY5Y neuroblastoma, OVCAR human ovarian carcinoma, MZ-MEL human melanoma, A431 epidermoid carcinoma cells were routinely cultured in the Laboratory of Oncology of Gaslini Institute. 4T1 cells were stably transfected with LC3-GFP, which was a kind gift from Jae Jung at USC, for autophagy studies. All cells were routinely maintained in DMEM 10% FBS at 37° C., 5% CO2. To inhibit autophagy cells were treated with 5 μM chloroquine (CQ) for 48 hours during in vitro STS. To modulate HO-1 activity, 4T1 cells were treated with 10 μM hemin (Sigma) or 20 μM zinc protoporphyrin (ZnPP; Sigma) for 24 hours prior to and 24 hours during chemotherapy treatment.
In vitro chemotherapy was performed by treating cells in medium containing chemotherapy for 24 hours. Optimum drug doses were determined for each individual cell line. For in vivo studies, DXR was injected intravenously via lateral tail veins, and CP was injected intraperitoneally.
Cellular fasting was done by glucose and/or serum restriction which was based on blood glucose measurements in fasted and normally fed mice; the lower level approximated to 0.5 g/L. and the upper level to 2.0 g/L. For human cell lines, normal glucose was considered as 1.0 g/L. Cells were washed twice with PBS before changing to fasting medium.
Cytotoxicity was measured by the ability to reduce methylthiazolyldiphenyl-tetrazolium bromide (MTT). Briefly, MTT was prepared at 5 mg/ml in PBS, diluted to a final concentration of 0.5 mg/ml for assays, and incubated for 3-4 hours at 37° C. […] Survival was presented as percentage of MTT reduction level of treated cells to control cells. Absorbance was read at 570 nm using a microplate reader SpectraMax 250 (Molecular Devices) and SoftMax Pro 3.0 software (Molecular Devices).

[2] = system: 4T1 breast cancer; settings: two fasting cycles; 20 days after the last treatment
Description: Short-term starvation (STS), or fasting, was achieved by complete food withdrawal for 48-60 hours with continued access to water. […] Fasting in the glioma model was applied only once due to the unusually rapid tumor growth in the control (ad lib, no chemotherapy) group.
To establish a subcutaneous cancer mouse model, 12 week-old female BALB/c, 12-week-old female and male C57BL/6 mice, and 7-week-old Nude mice were injected with 4T1 breast cancer cells, B16 melanoma and GL26 glioma cells, and ACN human neuroblastoma cells, respectively. For metastatic mouse models of cancer, 12-week-old female BALB/c, 12-week-old female and male C57BL/6 mice were injected intravenously via lateral tail veins with 2×105 4T1, B16, GL26 cells, respectively, and 6-week-old female A/J mice were injected via lateral tail veins with 2×105 NXS2, and 1×10^6 Neuro-2a cells. […] Body weights were determined periodically and tumor size was measured using a digital vernier caliper. Tumor volume was calculated using the following equation: tumor volume (mm3)=(length×width×height)×π/6, where the length, width and height are in mm.
Animals were fasted for a total of 48-60 hours by complete deprivation of food but with free access to water. […] Body weight was measured immediately before and after fasting.

[3] = system: 4T1 breast cancer cells; settings: glucose 0.5 vs 2.0 g/L, 1% FBS
Description: (§3) To determine the mechanisms responsible for this STS-dependent sensitization, the effect of low glucose on DNA single and double strand breaks in cancer cells exposed to chemotherapy by the comet assay was studied.
(§4) Cells were diluted to 10^5/ml in culture medium (DMEM/F12 with 10% FBS), and treated with 50 μM DXR for 1 hour at 37° C. Cells were then washed once with ice cold PBS and subject to CometAssay (Trevigen, Inc, Gaithersburg, MD) according to the manufacturer's recommended procedure. Comet images were acquired with a Nikon Eclipse TE300 fluorescent microscope and analyzed with the Comet Score software (TriTek Corp., ver1.5). 100-300 cells were scored for each genotype/treatment group.

[4] = Self-reported side effects after chemotherapy (CTC-based survey); format: in vivo, human
Description: Ten cases are described in which patients diagnosed with a variety of malignancies have voluntarily fasted prior to (48-140 hours) and/or following (24-56 hours) chemotherapy. None of these 10 patients, who received an average of 4 cycles of chemotherapy in combination with fasting, reported significant side effects caused by the fasting itself other than hunger. Toxicity was graded based on the Common Toxicity Criteria (CTC) of the National Cancer Institute (NCI) and self-reported side-effects from five patients indicate that fasting may protect against fatigue, weakness, and gastrointestinal side effects.
Self-reported assessments of all 10 patients were obtained to evaluate the severity of the side effects experienced. Since many of the chemo toxic side effects are cumulative, survey data was compared, including all the combined fasting- and non-fasting associated chemotherapy side effects (FIG. 17A). Toxicity was graded based on the Common Toxicity Criteria of National Cancer Institute. Encouragingly, better self-reported health outcomes were addressed by all the patients even though chemo-fasting cycles were mostly carried out in the later portion of the therapy. Nausea, vomiting, diarrhea, abdominal cramps, and mouth sores were virtually absent from the reports of all 10 patients whenever chemo-fasting cycles were administered, whereas at least one of these symptoms was reported by 5 out of the 6 ad lib fed patients (FIG. 17A). The four patients that always fasted in combination with all the chemo-treatments reported low severity for the majority of the side effects (FIGS. 12, 13, 14, 16). Only mild weakness and hair loss were reported by multiple patients. For the 6 patients that received chemotherapy in association with both, fasting or ad lib diet, the severity of the self-reported side effects was determined by considering only the two closest cycle of chemotherapy in which the patient had fasted or not. There was a general and major reduction in the severity of many of the self-reported side effects in combination with fasting (FIG. 17B).

[5] = system: prostate adenocarcinoma; test: PSA level, cases 3 and 7; format: in vivo, human
Description: A person who was diagnosed in July of 2000 with bilateral prostate adenocarcinoma, Gleason score 7 and PSA level of 5.8 ng/ml. A prostatectomy performed in September of 2000 led to undetectable levels of PSA until January 2003 when it rose to 1.4 ng/ml. Leuprolide acetate together with bicalutamide and finasteride were prescribed. […] Different drugs including triptorelinpamoate, nilutamide, thalidomide, CP and ketoconazole were utilized to control the disease. In 2007 the patient's PSA level reached 9 ng/ml and new metastases were observed during a bone scan. […] After stopping the chemotherapy treatments, their PSA rose rapidly. DTX at 75 mg/m2 in a 3-weekly cycle was the regimen elected and once again the patient suffered significant side effects (FIG. 5). In June 2008, Chemotherapy stopped. The patient was enrolled in a phase III clinical trial with abiraterone acetate, a drug that can selectively block CYP17, a microsomal enzyme that catalyzes a series of reactions critical to nongonadal androgen biosynthesis (Derek Raghavan and Eric A. Klein J.C.O 2008). […] This time the patient opted to fast prior to chemotherapy. […] In agreement to the patient's experience, blood readouts were consistently stable and remained within normal range throughout the treatments (FIGS. 4A-G). During the last three cycles, besides fasting the patient applied testosterone (cream 1%) for five days prior to chemotherapy.
As a consequence the PSA level along with testosterone level increased dramatically.
A person who was diagnosed in July 1998 with prostate adenocarcinoma, Gleason score 8. […] In 1998, the patient received leuprolide acetate and bicalutamide for the first time. In September 1999, those drugs wore off and they were put on finasteride. […] They started the second cycle with leuprolide acetate and also received High Dose Rate (HDR) brachytherapy and external beam radiation with Intensity Modulated Radiation Therapy (IMRT). Complementary treatment with multiple drugs such as bicalutamide, triptorelinpamoate and nandrolone was applied in order to control the disease. However, their PSA level increased quickly each time the treatment was halted. […] The patient decided to fast 60-66 hours prior to and 8-24 hours followed chemotherapy (Table 3).

[6] = system: B16 melanoma cells; test: Metastatic mouse model of melanoma; format: in vivo
Source text: The effect of fasting on chemotherapy was studied in metastatic models generated by intravenous injections of murine breast cancer cells (4T1), melanoma cells (B16), and 2 neuroblastoma cell lines (NXS2 and Neuro-2a) in immunocompetent mice. Fasting potentiated chemotherapy and extended the survival of all mice models of metastatic cancer (FIGS. 24-28). In the metastatic model of melanoma, mice were sacrificed early to determine the effect of STS on metastases. […] For instance, lung metastases were found in 100% vs65% of mice that received DXR under normal feeding and fasting, respectively. In addition, unlike normally fed mice, metastases were not detected in the liver or spleen of fasted mice (FIG. 25).
Body weight was measured immediately before and after fasting.

[7] = system: murine neuroblastoma (NXS2); test: Metastatic mouse model of neuroblastoma NXS2, survival; format: in vivo; settings: 16 mg/Kg
[8] = system: B16 melanoma cells; test: Comet assay, B16; format: cell-based, murine; settings: glucose 0.5 vs 2.0 g/L, 1% FBS
Description: as §3, §4

[9] = system: GL26 glioma cells; test: Comet assay, GL26; format: cell-based, murine; settings: glucose 0.5 vs 2.0 g/L, 1% FBS
Description: as §3, §4

[10] = system: 17 different cancer cells; test: STS sensitization panel of 17 cancer cell lines, MTT; format: cell-based; settings: 0.5 g/L glucose, 1% FBS versus normal glucose, 10% FBS
Description: (§1) To model fasting in vitro, cancer cells were incubated in media containing serum collected from mice either fed ad lib or fasted for 48 hours. In agreement with results in mice, breast cancer cells (4T1) cultured in medium supplemented with serum from fasted mice were sensitized to both DXR and CP compared to the effect of incubation in serum from mice fed ad lib (FIG. 30). Because pronounced glucose and growth factor reduction (e.g., the 75% reduction in the growth factor IGF-I) are two key extracellular responses to fasting, cells were incubated in different glucose and serum concentrations based on blood glucose measurements from normally fed and fasted mice (FIG. 31), i.e., incubation in low glucose (0.5 g/L) with low serum (1% FBS), or normal glucose (1.0 and 2.0 g/L for human and murine cell lines respectively) with normal serum (10% FBS) for 24 hours before and also during drug treatment (FIG. 32). In agreement with the in vivo studies, glucose and serum restriction sensitized 15 out of 17 different cancer cells lines, including the murine melanoma (B16), glioma (GL26), and breast cancer (4T1) cells to DXR and/or CP (FIGS. 32-34). […]
(§2) Cytotoxicity was measured by the ability to reduce methylthiazolyldiphenyl-tetrazolium bromide (MTT). […] Absorbance was read at 570 nm using a microplate reader SpectraMax 250 (Molecular Devices) and SoftMax Pro 3.0 software (Molecular Devices).

[11] = system: melanoma (B16) cells; test: In vitro fasting (STS) and chemotherapy, MTT survival, B16; format: cell-based, murine; settings: rhIGF-I; glucose 0.5 vs 2.0 g/L, 1% FBS; DXR 16 μM
Description: as §1, with “32).” for “32). In agreement with the in vivo studies, glucose and serum restriction sensitized 15 out of 17 different cancer cells lines, including the murine melanoma (B16), glioma (GL26), and breast cancer (4T1) cells to DXR and/or CP (FIGS. 32-34).”
In vitro chemotherapy was performed by treating cells in medium containing chemotherapy for 24 hours. Optimum drug doses were determined for each individual cell line. […]
as §2

[12] = case 7, fasting 60-66 h prior, 8-24 h after

O=P1(N(CCCl)CCCl)NCCCO1 (stereo not shown) [CP, cyclophosphamide]
sensitization by serum from fasted mice [1]: sensitized | tumor size relative to CP treatment alone group [2]: less than half | DNA damage when combined with STS [3]: synergistically increased DNA damage

CC(=O)O[C@@]12CO[C@@H]1C[C@H](O)[C@@]1(C)C(=O)[C@H](O)C3=C(C)[C@@H](OC(=O)[C@H](O)[C@@H](NC(=O)OC(C)(C)C)c4ccccc4)C[C@@](O)([C@@H](OC(=O)c4ccccc4)[C@H]21)C3(C)C [DTX, docetaxel]
self-reported side effects ([4]; case 3, 75 mg/m2 with fasting, versus previous ad-lib cycles): considerably lower side effects | self-reported side effects ([4]; case 3, chemotherapy cycles without fasting): fatigue, weakness, metallic taste, dizziness, forgetfulness, short-term memory impairment and peripheral neuropathy | self-reported side effects [4, 12]: almost non-existent except for mild vibratory sensation in their feet | PSA level ([5]; case 3, 25 mg/m2 weekly, no fasting): 40.6 ng/mL | PSA after 3 cycles of chemotherapy with fasting ([5]; case 3, reduced from 34.2, testosterone cream 1% applied before chemotherapy): 6.43 ng/mL | PSA level ([5]; case 3, upon restarting chemo-fasting treatments, 75 mg/m2): dropped immediately | PSA levels throughout the cycles [5, 12]: consistent decreasing trend

COc1cccc2c1C(=O)c1c(O)c3c(c(O)c1C2=O)C[C@@](O)(C(=O)CO)C[C@@H]3O[C@H]1C[C@H](N)[C@H](O)[C@H](C)O1 [DXR, doxorubicin]
metastases in the liver or spleen ([6]; fasted mice): not detected | mice with lung metastases ([6]; normal feeding): 100% | Long-term survival (over 180 days) ([7]; 2 cycles of fasting): 42% | mortality ([7]; ad lib group): 100% | sensitization by serum from fasted mice [1]: sensitized | DNA damage when combined with STS [8]: synergistically increased DNA damage | DNA damage when combined with STS [9]: synergistically increased DNA damage | DNA damage when combined with STS ([9]; listed as doxorubicin): additive | cancer cell lines sensitized by STS [10]: 15 out of 17

C=CC1=C(C)c2cc3[n-]c(cc4nc(cc5[n-]c(cc1n2)c(C)c5C=C)C(C)=C4CCC(=O)O)c(CCC(=O)O)c3C.[Zn+2] [ZnPP, zinc protoporphyrin]
sensitivity to chemotherapy (CP) ([1]; HO-1 inhibitor, 20 μM, 24 h before and 24 h during CP): sensitized cancer cells to chemotherapy

CCN(CC)CCCC(C)Nc1ccnc2cc(Cl)ccc12 (stereo not shown) [chloroquine]
cell death on inhibition of autophagy during STS ([1]; 5 μM, 48 hours, glucose restriction in low serum): further increased cell death

Bevacizumab: Bevacizumab added into the DTX treatment
PSA ([5]; case 3, added to weekly DTX treatment): dropped significantly

IGF-I: rhIGF-I, growth factor added during glucose restriction
effect on STS-dependent sensitization to DXR ([1]; rhIGF-I, glucose 0.5 vs 2.0 g/L, 1% FBS, DXR 16 μM): reverses the sensitization | effect on STS-dependent sensitization to DXR [11]: reverses the sensitization

hemin
fasting-dependent sensitization to chemotherapy (CP) ([1]; HO-1 inducer, 10 μM, 24 h before and 24 h during CP): partially reversed
